These results are taken from paper PMC10630888, “Nuclear ERK1/2 signaling potentiation enhances neuroprotection and cognition via Importinα1/KPNA2” (EMBO Molecular Medicine, 2023).

Where “and” joins values, the source holds several entries; their conditions need not be identical. Identical values can stand only once.

Assay [1] deals with ERK1/2 in HEK293 cells. As to the kind of experiment: ERK1/2 immunofluorescence (nuclear translocation) in HEK293 cells. Format: cell-based. The settings on record: HEK293, siRNA 200 nM 24 h, then RB5 50 μM 15 min. As for the experimental part:
For Western blot and immunofluorescence analysis, 0.6 × 10^6 HEK293 cells were seeded in 6‐well plates in the presence of DMEM High Glucose GlutaMax (Thermo Fisher Scientific) containing 10% Foetal Bovine Serum (FBS, Thermo Fisher Scientific) and 100 U/ml penicillin/streptomycin (Thermo Fisher Scientific). For Western blot analysis to assess ERK1/2 and phospho‐ERK1/2 levels, cells were serum starved for 24 h and incubated with RB5 50 μM or FBS 20% for 15 min at 37°C. To assess JNK and phospho‐JNK levels, cells were incubated with RB5 50 μM or anisomycin 5 μM for 30 min at 37°C. For immunofluorescence analysis, cells were serum‐starved for 24 h and incubated with 50 μM RB5 or 20% FBS for 15 min at 37°C.
After rinsing in PBS, cells were fixed in 4% PFA and permeabilized with increasing concentrations of methanol (33, 50, 75, and 95% in PBS, 2 min each at room temperature), followed by 100% methanol for 10 min at −20°C. […] The mean fluorescence intensity in the nucleus was calculated automatically by Fiji‐ImageJ software in 8–10 fields per slide. […]

Assay [2] has as its system pERK in CA1. Briefly: pERK in hippocampal CA1 of Tg2576 mice. Format: in vivo, mouse. The settings on record: for pERK in hippocampal CA1 (Fig 5 panel j): individual animals. As for the experimental part:
(§1) Immunohistochemistry was performed as described in Papale et al ([2016]). Briefly, 1 h after blocking in 5% normal goat serum and 0.1% Triton X‐100 solution, free‐floating sections were incubated overnight at 4°C with one of the following primary antibodies: anti‐phospho‐p44/42 MAP kinase (Thr202/Tyr204) (1:200, Cell Signaling Technology #9101), anti‐phospho–Elk‐1 (Ser383) (1:100, Cell Signaling #9181), anti‐phospho‐Kv4.2 (Thr607)‐R (1:100, Santa Cruz sc22254‐R), anti‐phospho‐MSK‐1 (1:100 Cell Signaling Technology #9595), anti‐phospho‐MEK1/2 (Ser218/222) (1:100, sc‐7995 Santa Cruz Biotechnology), c‐Fos (1:100, sc‐52 Santa Cruz Biotechnology), tyrosine Hydroxylase (monoclonal 1:1,000, Sigma Aldrich, Italy) and anti‐DARPP‐32 (H3) (1:100, Santa Cruz Biotechnology, #sc‐271111) overnight at 4°C. Sections were then incubated with biotinylated goat anti‐rabbit IgG (1:200, Vector Laboratories) or biotinylated goat anti‐mouse (1:200, Vector Laboratories) for 2 h. The classic avidin‐peroxidase complex (ABC, Vector, UK) protocol was applied, using 3,3′‐diaminobenzidine (DAB, Sigma) as a chromogen.
Tg2576 mice were administered with RB5 or Scramble (20 mg/kg i.p.) for either 7 days, for IHC analysis, or with a single injection (20 mg/kg i.p.), for behavioral analysis.

The subject of assay [3] is pERK. As to the kind of experiment: pERK in striatum of HdhQ111/+ mice treated with RB5. Format: in vivo, mouse. The settings on record: for pERK in striatum (Fig 5 panel d): individual animals. As for the experimental part:
as §1
For in vivo immunohistochemistry experiments, images were acquired from the dorsal striatum using a Leica DM IRB microscope under a 20× objective. The number of p‐ERK, p‐MSK‐1, p‐ELK, p‐MEK‐1, p‐VG K+, c‐Fos, and DARPP‐32 positive cells was counted in 2–3 consecutive sections per mouse, bilaterally and averaged across the sections using the ImageJ software by a blind investigator to the condition. Estimation of nigral cell loss was assessed by quantifying the number of TH‐immunopositive neurons of the SNc in 360 μm‐spaced sections for each animal.

Turning to “GRKKRRQRRRPPQGGGGGEPRRTEGVGPGVPGEVEMVKGQPFDV [RB5, six D-amino acids, acetylated N-terminus]”, the “ERK1/2 nuclear translocation after KPNA2 downregulation” value in assay [1] is listed as “did not further enhance ERK1/2 nuclear translocation”. The “ERK phosphorylation in hippocampal CA1” value in assay [2] (Tg2576 mice, 7 months old, 20 mg/kg i.p. for 7 days) is given as “restored ERK phosphorylation”. Further, the “pERK in hippocampal CA1 (Fig 5 panel j)” value in assay [2] (Tg2576 mice) was 12.58 and 9.08 and 13.47 and 9.49 and 10.2 and 10.95 and 9.29 and 11.78; in assay [2] (WT mice), 8.46 and 10.53 and 9.48 and 11.97 and 13.27 and 10.48 and 8.7. Also, the “ERK activity (pERK) in striatum” value in assay [3] (10 month-old HdhQ111/+ mice, 20 mg/kg i.p. for 8 days) is reported as “enhancing ERK activity”. The “pERK in striatum (Fig 5 panel d)” value in assay [3] (HdhQ111/+ mice) is 485.6 and 573.909 and 510.978 and 613 and 540.374 and 579.569 and 517.606 and 519.5 and 515.6; in assay [3] (WT mice), 416.7 and 470.92 and 371.49 and 542.1 and 453.63 and 361.4 and 405.17 and 381.6.
